# Laboratory results published in patent US20210023523A1, “PARALLEL ORGANIC SYNTHESIS ON PATTERNED PAPER USING A SOLVENT-REPELLING MATERIAL” (The Governors of the University of Alberta, priority 2013, published 2021).
# How the values were obtained:
# MDA-MB-231-GFP cells = test: Short-term adhesion of MDA-MB-231-GFP cells to peptides synthesized on Teflon-patterned paper arrays; format: cell-based; conditions: for binding of cells to peptide-modified paper: confocal microscopy, FIG. 10b, 3 hours of incubation
# Description: When immobilized on paper, 5 out of the 8 peptides synthesized supported adhesion of MDA-MB-231 breast carcinoma at levels similar to or higher than the positive control GRGDS. The other three peptides supported greater adhesion than the scrambled peptide, GGRDS.
# The images represent short term adhesion of cells after 3 hours of incubation on the array.
# In FIG. 14(a), a fluorescent gel scanner was used to validate adhesion of MDA-MB-231-GFP cells to phage-derived peptides on peptide-arrays. […] FIG. 14(c) illustrates digitization of the number of cells per zone from fluorescent gel scanner images of the 32 peptides. The (+) and (−) lines represent the intensity level of the positive and negative controls.
# FIG. 18 illustrates a typical cell-binding experiment on a half array (40 peptides identified from two panning experiments, and 8 controls). […] FIG. 18c consists of the zones of interest for each peptide extracted from FIG. 18a, and organized by peptides. The average intensity of fluorescence for each peptide zone is then converted into a number of cells per zone through a calibration curve previously established for these cells (FIG. 18d). FIG. 18e is the resulting plot with standard deviation over the four replicates.
# [1] = tested on: MCF-7 breast cancer cells; test: Culture of MCF-7 cells on peptide-modified array with or without paclitaxel (Taxol); format: cell-based; conditions: cells cultured on a peptide that induced morphological changes; Taxol for the last 4 days of seven; without drug: spread cells forming aggregate
# Excerpt: FIG. 19 illustrates changes such as drug-resistance and morphology observed when a peptide-modified array supported culture of MCF-7 breast cancer cells for seven days and was exposed to the anti-cancer drug paclitaxel (Taxol) for the last 4 days. FIG. 19a presents confocal images of calcein-stained cells after culture in media without taxol for four peptides (including two controls) and FIG. 19b correspond to cells cultured in media with Taxol.
Compound,binding of cells to peptide-modified paper (MDA-MB-231-GFP cells),"adhesion of MDA-MB-231 breast carcinoma cells to peptide immobilized on paper (MDA-MB-231-GFP cells; fluorescent gel scanner (GFP fluorescence), 3 hours of incubation on the array, known bioactive peptides, FIG. 10a)",cell morphology [1]
GRGDS (peptide identified by phage display panning on MDA-MB-231 cells),binding,,
"GGRDS (peptide identified by phage display panning on MDA-MB-231 cells) [scrambled peptide, negative control]",no binding,minimal binding,
"CC(=O)O[C@H]1C(=O)[C@@]2(C)[C@H]([C@H](OC(=O)c3ccccc3)[C@]3(O)C[C@H](OC(=O)[C@H](O)[C@@H](NC(=O)c4ccccc4)c4ccccc4)C(C)=C1C3(C)C)[C@]1(OC(C)=O)CO[C@@H]1C[C@@H]2O [Taxol, paclitaxel]",,,"isolated, rounded cells"
